Assay results from US20260109709A1 (MIRATI THERAPEUTICS, INC., priority 2021, published 2026).
Where a name gives a salt, the structure may show the parent alone. Read-outs that look alike come from different tables or passages of the source.

Assays:
PRMT5-MEP50 = target: T1, PRMT5-MEP50 (Homo sapiens, UniProt O14744); experiment: SPR binding assay (PRMT5.MTA and PRMT5·SAM surfaces); conditions: steady-state fit
T1 construct: biotin (in vivo biotinylated)
Procedure: In vivo biotinylated PRMT5-MEP50 was diluted to […] in 25 mM Bicine pH 7.6, 100 mM NaCl, 1 mM TCEP, and 0.05% Tween-20 and injected at 5 μl/min flow rate into flow cell 2 (FC2) of a Series S Sensor Chip SA (Cytiva) in a Biacore T200 or in a Biacore 8K plus (Cytiva). SPR screening was performed in MTA running buffer (25 mM Bicine pH 7.6, 100 mM NaCl, 1 mM TCEP, 20 µM MTA, 0.05% Tween-20 and 2% DMSO). The biotinylated PRMT5-MEP50 surface was equilibrated with MTA running buffer for 12 hours prior to the start. […] Subsequently, compound titration was repeated in SAM-running buffer (25 mM Bicine pH 7.6, 100 mM NaCl, 1 mM TCEP, 20 μM SAM, 0.05% Tween-20, and 2% DMSO). […] After double referencing, the steady-state response was extracted for each fragment concentration and was fit to the Langmuir isotherm equation to determine the equilibrium dissociation constant (KD).

PRMT5/MEP50 complex = target: T2, PRMT5/MEP50 complex (Homo sapiens, UniProt O14744); experiment: PRMT5:MEP50 FlashPlate Assay (histone H4 peptide methylation); format: biochemical; conditions: 40 nM H4 (1-15) peptide, 1 μM SAM
T2 construct: purchased Reaction Biology Corporation
Procedure: The PRMT5 inhibitory activity of compounds of the present invention was determined using a PRMT5: MEP50 FlashPlate Assay and a PRMT5: MEP50 HotSpot Assay (Reaction Biology Corporation).
The assay uses purified human, PRMT5 enzyme to convert S-adenosyl-L-[methyl-3H]methionine plus histone H4 L-arginine to S-adenosyl-L-homocysteine plus histone H4 [methyl-3H]-L-arginine. The assay was carried out using Streptavidin-coated FlashPlates (Perkin Elmer), which contained a scintillant embedded in the plastic of the plate. The histone H4 peptide substrate was conjugated with biotin, which binds to the streptavidin-coated well of the plate, placing the H4 peptide in close proximity to the side well and the scintillant. The transfer of the tritiated methyl group from S-adenosyl-L-[methyl-3H]methionine to the bound histone H4 peptide generated a radiolabeled histone H4, which was quantitated by measuring in a scintillation counter to determine the activity of PRMT5 enzyme in the presence and absence of compound. […] Briefly, compounds of the present invention were solubilized in 100% DMSO at a highest concentration of 10 mM. […] Control samples lacking compound, PRMT5/MEP50 complex or various reaction components also were prepared and processed in parallel with compound test samples. SAH was used as a positive control for assay validation. To measure PRMT5 inhibitory activity, 3 nM PRMT5/MEP50 complex (Reaction Biology Corporation) was preincubated with test compound in assay buffer containing 40 nM histone H4 peptide (amino acids 1-15)-Biotin conjugate for 20 min at room temperature. The enzymatic reaction was initiated by adding 1 μM tritiated S-adenosyl methionine (final concentration) and the reaction is allowed to proceed for 20 min. The reaction was stopped and the amount of bound, tritiated H4 peptide in each sample was determined using a scintillation counter.

[1] = PRMT5.MTA surface, MTA running buffer (20 µM MTA), read-out: KD MTA
[2] = PRMT5·SAM surface, SAM running buffer (20 μM SAM), read-out: KD SAM

T2 sequence (O14744 2-637 limits assumed): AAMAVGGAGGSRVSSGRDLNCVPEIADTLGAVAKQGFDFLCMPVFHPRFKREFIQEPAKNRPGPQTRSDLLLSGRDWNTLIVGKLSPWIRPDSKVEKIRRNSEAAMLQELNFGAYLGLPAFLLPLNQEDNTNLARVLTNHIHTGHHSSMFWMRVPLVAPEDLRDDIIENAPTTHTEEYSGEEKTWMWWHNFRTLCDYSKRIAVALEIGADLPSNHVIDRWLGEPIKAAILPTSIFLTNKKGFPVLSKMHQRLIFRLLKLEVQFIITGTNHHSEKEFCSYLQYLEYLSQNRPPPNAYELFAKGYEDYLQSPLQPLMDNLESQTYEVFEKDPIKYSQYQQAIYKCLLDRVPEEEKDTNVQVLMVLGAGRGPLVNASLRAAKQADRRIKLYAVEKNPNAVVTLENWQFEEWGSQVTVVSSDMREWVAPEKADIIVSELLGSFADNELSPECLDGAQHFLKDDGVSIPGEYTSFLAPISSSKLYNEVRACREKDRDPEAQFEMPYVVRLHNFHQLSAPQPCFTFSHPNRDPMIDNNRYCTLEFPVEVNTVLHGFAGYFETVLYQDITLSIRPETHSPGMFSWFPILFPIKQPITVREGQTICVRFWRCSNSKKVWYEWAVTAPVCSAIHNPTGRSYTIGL
T2 sequence (Q9BQA1 2-342 partner limits assumed): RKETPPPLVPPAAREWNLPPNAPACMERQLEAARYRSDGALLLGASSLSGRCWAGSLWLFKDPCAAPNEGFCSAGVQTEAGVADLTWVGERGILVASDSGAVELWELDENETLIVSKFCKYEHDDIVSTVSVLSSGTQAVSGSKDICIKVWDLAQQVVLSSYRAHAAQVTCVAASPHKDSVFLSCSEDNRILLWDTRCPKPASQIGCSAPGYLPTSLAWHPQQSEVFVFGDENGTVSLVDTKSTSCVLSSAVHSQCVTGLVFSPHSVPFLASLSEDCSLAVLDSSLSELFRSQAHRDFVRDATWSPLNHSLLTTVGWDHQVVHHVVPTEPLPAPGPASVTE
T1 sequence (O14744 whole entry): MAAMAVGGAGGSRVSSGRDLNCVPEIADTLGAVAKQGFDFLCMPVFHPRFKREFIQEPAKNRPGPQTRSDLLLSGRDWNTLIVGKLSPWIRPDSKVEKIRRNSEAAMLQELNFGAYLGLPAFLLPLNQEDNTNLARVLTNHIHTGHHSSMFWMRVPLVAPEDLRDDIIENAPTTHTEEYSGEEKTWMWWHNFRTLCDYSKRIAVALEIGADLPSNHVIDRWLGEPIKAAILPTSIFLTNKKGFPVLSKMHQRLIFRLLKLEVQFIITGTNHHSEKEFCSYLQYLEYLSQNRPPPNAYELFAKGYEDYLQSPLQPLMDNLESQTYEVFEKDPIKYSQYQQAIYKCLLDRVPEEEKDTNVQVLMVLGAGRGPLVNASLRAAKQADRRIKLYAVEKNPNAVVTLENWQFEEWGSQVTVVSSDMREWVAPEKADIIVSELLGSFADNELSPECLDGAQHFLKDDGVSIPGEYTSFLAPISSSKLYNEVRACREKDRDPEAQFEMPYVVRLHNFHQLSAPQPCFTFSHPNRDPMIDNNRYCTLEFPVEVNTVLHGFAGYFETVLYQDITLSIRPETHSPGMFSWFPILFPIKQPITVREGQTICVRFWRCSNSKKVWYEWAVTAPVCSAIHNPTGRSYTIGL
T1 sequence (Q9BQA1 whole entry partner): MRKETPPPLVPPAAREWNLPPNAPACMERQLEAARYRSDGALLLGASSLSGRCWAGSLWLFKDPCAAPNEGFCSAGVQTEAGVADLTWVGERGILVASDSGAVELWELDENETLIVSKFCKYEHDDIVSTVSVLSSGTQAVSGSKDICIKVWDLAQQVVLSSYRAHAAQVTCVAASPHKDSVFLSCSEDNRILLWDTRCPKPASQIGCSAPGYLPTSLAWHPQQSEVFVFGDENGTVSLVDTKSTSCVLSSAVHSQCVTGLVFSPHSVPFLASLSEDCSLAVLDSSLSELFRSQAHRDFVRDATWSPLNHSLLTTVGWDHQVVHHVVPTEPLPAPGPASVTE

Row | Compound | Kd (PRMT5-MEP50; [1]) | Kd (PRMT5-MEP50; [2]) | IC50 (PRMT5/MEP50 complex; IC50 + 2 μM MTA, plus 2 μM MTA) | IC50 (PRMT5/MEP50 complex; absence of MTA, read-out: IC50)
1 | Cn1ccc(-c2ccc3c(c2)nc(N)n3C)n1 [Example 1-2, 1-methyl-5-(1-methyl-1H-pyrazol-3-yl)-1H-benzo[d]imidazol-2-amine] | 49 µM | 65.8 µM | > 300 µM | 
2 | Cc1ncc(CNc2cccc3c2nc(N)n3C)n1-c1ccccc1 [Example 1-12, 1-methyl-N4-((2-methyl-1-phenyl-1H-imidazol-5-yl)methyl)-1H-benzo[d]imidazole-2,4-diamine] | 2.45 µM | 19.7 µM | > 300 µM | 
3 | Cn1c(N)nc2c(Nc3cnc4c(c3)CCCC4)cccc21 [Example 1-19, 1-methyl-N4-(5,6,7,8-tetrahydroquinolin-3-yl)-1H-benzo[d]imidazole-2,4-diamine] | 74.2 µM | 203 µM | > 300 µM | 
4 | CC(C)c1nc(Nc2cccc3c2nc(N)n3C)ns1 [Example 1-42, N4-(5-isopropyl-1,2,4-thiadiazol-3-yl)-1-methyl-1H-benzo[d]imidazole-2,4-diamine] | 20.8 µM |  | > 300 µM | 
5 | COc1cccc(CN(C)c2ccc3c(c2)nc(N)n3C)c1 [Example 1-48, N5-(3-methoxybenzyl)-N5,1-dimethyl-1H-benzo[d]imidazole-2,5-diamine] | 39.1 µM | 108 µM |  | 
6 | Cn1cc(-c2ccc3c(c2)nc(N)n3C)cn1 [Example 1-53, 1-methyl-5-(1-methyl-1H-pyrazol-4-yl)-1H-benzo[d]imidazol-2-amine] | 44.6 µM | 187 µM | > 300 µM | 
7 | Cn1nccc1-c1ccc2c(c1)nc(N)n2C [Example 1-56, 1-methyl-5-(1-methyl-1H-pyrazol-5-yl)-1H-benzo[d]imidazol-2-amine] | 24.5 µM | 51.9 µM | > 300 µM | 
8 | CN(Cc1nnc2n1CCOC2)c1ccc2c(c1)nc(N)n2C [Example 1-83, N5-((5,6-dihydro-8H-[1,2,4]triazolo[3,4-c][1,4]oxazin-3-yl)methyl)-N5,1-dimethyl-1H-benzo[d]imidazole-2,5-diamine] | 0.089 µM | 41.8 µM | > 300 µM | 
9 | Cn1ncc(-c2cccc3c2nc(N)n3C)c1-c1ccccc1C#N [Example 1-87, 2-(4-(2-amino-1-methyl-1H-benzo[d]imidazol-4-yl)-1-methyl-1H-pyrazol-5-yl)benzonitrile hydrochloride] | 0.512 µM | 1.67 µM | 17.9 µM | > 300 µM

Other lines, results leading:

Row | Kd (PRMT5-MEP50; [1]) | Kd (PRMT5-MEP50; [2]) | IC50 (PRMT5/MEP50 complex; IC50 + 2 μM MTA, plus 2 μM MTA) | IC50 (PRMT5/MEP50 complex; absence of MTA, read-out: IC50) | Compound
10 | 16.3 µM | 79.6 µM |  |  | COc1c(Cc2cccnc2)cc(C#N)c2c1nc(N)n2C [Example 3-22, 2-amino-7-methoxy-3-methyl-6-(3-pyridylmethyl)benzimidazole-4-carbonitrile hydrochloride]
11 |  |  | 0.006 µM | 2.48 µM | CC(=O)N(Cc1cc(C#N)c2c(c1)nc(N)n2C)c1ccc2ccccc2c1C#N [Example 3-25, N-[(2-amino-7-cyano-1-methyl-benzimidazol-5-yl)methyl]-N-(1-cyano-2-naphthyl) acetamide]
12 | 16.9 µM | 32.5 µM |  |  | Cn1c(N)nc2c(Nc3cnc4c(c3)CCCC4)ccc(C#N)c21 [Example 3-30, 2-amino-1-methyl-4-((5,6,7,8-tetrahydroquinolin-3-yl)amino)-1H-benzo[d]imidazole-7-carbonitrile]
13 |  |  | 122 µM | > 300 µM | Cn1c(N)nc2cc(Cc3ccccn3)cc(C(F)F)c21 [Example 4-2, 7-(difluoromethyl)-1-methyl-5-(2-pyridylmethyl)benzimidazol-2-amine]
14 |  |  | > 300 µM | > 300 µM | CCn1c(N)nc2ncccc21 [Example 5-1, 1-ethyl-1H-imidazo[4,5-b]pyridin-2-amine hydrochloride]
15 |  |  | > 300 µM | > 300 µM | Cn1c(N)nc2cc(Oc3cccnc3)cnc21 [Example 5-3, 3-methyl-6-(3-pyridyloxy) imidazo[4,5-b]pyridin-2-amine]
16 |  |  | 17.8 µM | 198 µM | CCc1cc(-c2cnn(C)c2-c2ccccc2C#N)c2nc(N)n(C)c2c1 [Example 6-3, 2-[4-(2-amino-6-ethyl-1-methyl-benzimidazol-4-yl)-2-methyl-pyrazol-3-yl]benzonitrile hydrochloride]
